Test results: patent publication US4294843A, “Anti-protozoal oxadiazole derivatives” (Burroughs Wellcome Co., priority 1978, dated 1981)
Where a name gives a salt, the structure may show the parent alone.

Tests used:
[1] = LD50 in female rats, oral by gavage; details: rat, in vivo, 10% w/v suspension in corn oil
Method: 1. The LD50 of the compound of Example 3, both as the free base and the hydrochloride salt was determined in female rats by standard techniques the compound being administered as a 10% w/v suspension in corn oil orally by gavage.

P. berghei = assay: percentage inhibition of P. berghei (blood parasitaemia) in mice, seven oral doses; type: in vivo; details: Plasmodium berghei, 96 h, parasitaemia on fourth day; for inhibition in vivo at 100 mg/kg: 7 × 100 mg/kg oral; for inhibition in vivo at 10 mg/kg: 7 × 10 mg/kg oral
Excerpt: Groups of five mice were inoculated intraperitoneally with the normal strain of P. berghei. The mice on test received seven oral doses of drug beginning on the afternoon of the day of infection then twice a day for the following three days. Blood parasitaemias were estimated on the fourth day and compared with those of the untreated controls.
The results are given in Table 1, the results being expressed as percentage inhibition of P. berghei.

Row | SMILES | LD50 [1] [mg/kg] | inhibition in vivo at 100 mg/kg (P. berghei) [%] | inhibition in vivo at 10 mg/kg (P. berghei) [%]
1 | Cl.Nc1ccccc1SCc1ncon1 [Example 3 - HCl salt, 3-(2-Aminophenylthiomethyl)-1,2,4-oxadiazole hydrochloride] | 63 |  | 
2 | CN(C)c1cc(Cl)ccc1SCc1ncon1 [Example 18, 3-(4-Chloro-2-dimethylaminophenylthiomethyl)-1,2,4-oxadiazole] |  | 95 | 
3 | Nc1cccc(Cl)c1SCc1ncon1 [Example 9, 3-(2-Amino-6-chlorophenylthiomethyl)-1,2,4-oxadiazole] |  | 89.6 | 32
4 | Cc1nc(CSc2ccccc2N)no1 [Example 15, 3-(2-Aminophenylthiomethyl)-5-methyl-1,2,4-oxadiazole hydrochloride] |  | 86 | 4
5 | CCOC(=O)Nc1ccccc1SCc1ncon1 [Example 19, 3-(2-Ethoxycarbonylaminophenylthiomethyl)-1,2,4-oxadiazole] |  | 99.9 | 52
6 | Nc1ccccc1SCc1noc(CSc2ccccc2N)n1 [Example 13, 3,5-Di-(2-aminophenylthiomethyl)-1,2,4-oxadiazole] |  |  | 77
7 | Cc1ccc(N)c(SCc2ncon2)c1 [Example 7, 3-(2-Amino-5-methylphenylthiomethyl)-1,2,4-oxadiazole] |  | 99 | 46
8 | Clc1ccccc1C=Nc1ccccc1SCc1ncon1 [Example 40, 3-[2-(2-Chlorobenzylideneamino)phenylthiomethyl]-1,2,4-oxadiazole] |  | 100 | 82
9 | CNc1ccccc1SCc1ncon1 [Example 4, 3-(2-Methylaminophenylthiomethyl)-1,2,4-oxadiazole] |  | 97 | 67
10 | OC(CNc1ccccc1SCc1ncon1)COc1ccccc1 (centres unmarked) [Example 43, 2-Hydroxy-1-[2-(1,2,4-oxadiazol-3-ylmethylthio)anilino]-3-phenoxypropane] |  | 60 | 24
11 | COc1ccc(C=Nc2ccccc2SCc2ncon2)cc1 [Example 39, 3-[2-(4-Methoxybenzylideneamino)phenylthiomethyl]-1,2,4-oxadiazole] |  | 99.7 | 73
12 | Nc1cc(Cl)ccc1SCc1ncon1 [Example 8, 3-(2-Amino-4-chlorophenylthiomethyl)-1,2,4-oxadiazole] |  | 100 | 89
13 | Nc1cc(F)ccc1SCc1ncon1 [Example 16, 3-(2-Amino-4-fluorophenylthiomethyl)-1,2,4-oxadiazole] |  | 100 | 81
14 | COc1ccc(C(=O)Nc2ccccc2SCc2ncon2)cc1 [Example 27, 3-[2-(4-Methoxybenzamido)phenylthiomethyl]-1,2,4-oxadiazole] |  | 85 | 73
15 | Nc1cc(Cl)ccc1SCC1=NOCN1 [Example 52, 3-(2-Amino-4-chlorophenylthiomethyl)-4,5-dihydro-1,2,4-oxadiazole] |  |  | 95
16 | Nc1ccccc1SCC1=NOCN1 [Example 51, 3-(2-Aminophenylthiomethyl)-4,5-dihydro-1,2,4-oxadiazole] |  |  | 63
17 | O=[N+]([O-])c1ccc(Sc2ccc(NC(=S)Nc3ccccc3SCc3ncon3)cc2)cc1 [Example 37, N-[2-(1,2,4-oxadiazol-3-yl-methylthio)phenyl]-N^1-4-(4-nitrophenylthio)phenyl thiourea] |  | 22 | 50
18 | Nc1ccccc1SCc1noc(-c2ccccc2)n1 [Example 14, 3-(2-Aminophenylthiomethyl)-5-phenyl-1,2,4-oxadiazole] |  | 100 | 77
19 | O=[N+]([O-])c1ccc(Oc2ccc(NC(=S)Nc3ccccc3SCc3ncon3)cc2)cc1 [Example 36, N-[2-(1,2,4-oxadiazol-3-yl-methylthio)phenyl]-N^1-4-(4-nitrophenyloxy)phenyl thiourea] |  | 19 | 
20 | CCN(CC)c1ccccc1SCc1ncon1 [Example 45, 3-(2-Diethylaminophenylthiomethyl)-1,2,4-oxadiazole] |  | 100 | 84
21 | O=C(Nc1ccccc1SCc1ncon1)c1ccccc1 [Example 26, 3-(2-Benzamidophenythiomethyl)-1,2,4-oxadiazole] |  |  | 52
22 | CC(C)(C)C(=O)Nc1ccccc1SCc1ncon1 [Example 28, 3-(2-Trimethylacetamidophenylthiomethyl)1,2,4-oxadiazole] |  | 53 | 
23 | O=C(Nc1ccccc1SCc1ncon1)c1ccc(Cl)cc1 [Example 25, 3-[2-(4-chlorobenzamido)phenylthiomethyl]-1,2,4-oxadiazole] |  | 99.9 | 64

Row | SMILES | LD50 [1] [mg/kg] | inhibition in vivo at 100 mg/kg (P. berghei) [%] | inhibition in vivo at 10 mg/kg (P. berghei) [%]
24 | COc1ccc(SCc2ncon2)c(N(C)C)c1 [Example 17, 3-(2-Dimethylamino-4-methoxyphenylthiomethyl)-1,2,4-oxadiazole] |  | 62 | 
25 | Clc1ccc(CNc2ccccc2SCc2ncon2)cc1 [Example 42, 3-[2-(4-Chlorobenzylamino)phenylthiomethyl]1,2,4-oxadiazole] |  | 100 | 93
26 | O=C(Nc1ccccc1SCc1ncon1)OCc1ccccc1 [Example 21, 3-(2-Benzyloxycarbonylaminophenylthiomethyl)-1,2,4-oxadiazole] |  | 100 | 68
27 | Nc1ccccc1SCc1noc(-c2ccc(Cl)cc2)n1 [Example 11, 3-(2-Aminophenylthiomethyl)-5-(4-chlorophenyl)-1,2,4-oxadiazole] |  | 99 | 54
28 | CN(C)c1ccccc1SCC(N)=NO [Example 56, 2-(2-Dimethylaminophenylthio)acetamidoxime] |  |  | 100
29 | COc1ccc(C=Nc2ccccc2SCc2ncon2)cc1OC [Example 38, 3-[2-(3,4-Dimethoxybenzylideneamino)phenylthiomethyl]-1,2,4-oxadiazole] |  | 36 | 9
30 | S=C(Nc1ccccc1)Nc1ccccc1SCc1ncon1 [Example 33, N-[2-(1,2,4-oxadiazol-3-yl-methylthio)phenyl]-N^1-phenylthiourea] |  |  | 10
31 | O=C(Nc1ccccc1SCc1ncon1)NC1CCCCC1 [Example 35] |  | 39 | 
32 | CCN(C)c1ccccc1SCc1ncon1 [Example 46, 3-[2-(N-ethyl-N-methyl)aminophenylthiomethyl]1,2,4-oxadiazole] |  | 98 | 
33 | Cc1ccc(SCc2ncon2)c(N)c1 [Example 6, 3-(2-Amino-4-methylphenylthiomethyl)-1,2,4-oxadiazole] |  | 99 | 55
34 | CC(=O)Nc1ccccc1SCc1ncon1 [Example 23, 3-(2-Acetylaminophenylthiomethyl)-1,2,4-oxadiazole] |  | 100 | 38
35 | CN(C)c1ccccc1SCc1noc(-c2ccccc2)n1 [Example 2, 3-(2-Dimethylaminophenylthiomethyl)-5-phenyl-1,2,4-oxadiazole] |  | 83 | 
36 | Cc1ccc(S(=O)(=O)Nc2ccccc2SCc2ncon2)cc1 [Example 32, 3-[2-(p-toluenesulphonamido)phenylthiomethyl]-1,2,4-oxadiazole] |  | 43 | 
37 | O=C(Nc1ccccc1SCc1ncon1)c1ccco1 [Example 29, 3-(2-Furanoylaminophenylthiomethyl)1,2,4-oxadiazole] |  | 100 | 47
38 | CN(C)c1ccccc1SCc1ncon1 [Example 1, 3-(2-Dimethylaminophenylthiomethyl)-1,2,4-oxadiazole] |  | 100 | 65
39 | O=[N+]([O-])c1ccccc1SNc1ccccc1SCc1ncon1 [Example 44, 3-[2-(2-Nitrophenylsulphenylamino)phenyl]thiomethyl-1,2,4-oxadiazole] |  | 27 | 
40 | COc1cc(C=Nc2ccccc2SCc2ncon2)cc(OC)c1OC [Example 41, 3-[2-(3,4,5-Trimethoxybenzylideneamino)phenylthiomethyl]-1,2,4-oxadiazole] |  | 100 | 
41 | CS(=O)(=O)Nc1ccccc1SCc1ncon1 [Example 31, 3-(2-Methylsulphonamidophenylthiomethyl)-1,2,4-oxadiazole] |  |  | 33
42 | CN(C)c1ccccc1SCC1=NOCN1 [Example 53, 3-(2-Dimethylaminophenylthiomethyl)-4,5-dihydro-1,2,4-oxadiazole] |  |  | 43
43 | Nc1cc(Br)ccc1SCc1ncon1 [Example 10, 3-(2-Amino-4-bromophenylthiomethyl)-1,2,4-oxadiazole] |  | 99 | 85
44 | CN(C)c1ccccc1SCc1noc(CSc2ccc(Cl)cc2)n1 [Example 48, 5-(4-chlorophenylthiomethyl)-3-(2-dimethylaminophenylthiomethyl)-1,2,4-oxadiazole] |  | 88 | 22
45 | O=C(Nc1ccccc1SCc1ncon1)c1cccs1 [Example 30, 3-(Thiophene-2-carbonylaminophenylthiomethyl)1,2,4-oxadiazole] |  |  | 59
46 | COC(=O)Nc1ccccc1SCc1ncon1 [Example 20, 3-(2-methoxycarbonylaminophenylthiomethyl)-1,2,4-oxadiazole] |  | 97.5 | 
